# Laboratory results taken from US20240067662A1, “KRAS INHIBITORS” (Bristol-Myers Squibb Company, priority 2022, published 2024).
# Target: GMPPNP-loaded KRAS G12C (Homo sapiens, UniProt P01116, G12C)
# Experiment: KRAS G12C RAF Disruption Assay (HTRF)
# Format: biochemical
# Details: recombinant GMPPNP-loaded KRAS G12C (5 nM), 20 min with compound; GST-RAF1 RBD (9 nM); HTRF signal; read-out: KRASG12C RAF Disruption Assay (IC50)
# How it was run: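 GMPPNP-loaded KRAS G12C (5 nM) was preincubated with compound for 20 min at room temperature in Tris pH 7.5 buffer with NaCl, MgCl2, DTT and BSA. GST-RAF1 RBD (9 nM) was added for 20 min, then SA-Tb (0.25 nM) for 3 h. IC50 was fitted from the HTRF 520/495 ratio.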
# Sequence of GMPPNP-loaded KRAS G12C (P01116 1-188 isoform P01116-2 G12C): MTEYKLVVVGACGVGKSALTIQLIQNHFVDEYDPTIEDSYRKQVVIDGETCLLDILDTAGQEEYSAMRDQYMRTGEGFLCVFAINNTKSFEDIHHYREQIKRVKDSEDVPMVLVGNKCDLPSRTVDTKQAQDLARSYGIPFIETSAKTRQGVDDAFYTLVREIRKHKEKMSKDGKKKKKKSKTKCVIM
row,Structure (SMILES),IC50 [nM]
1,"C#Cc1c(F)ccc2cc(O)cc(-c3ncc4c(N5CCN(C(=O)/C(F)=C/c6ccccn6)CC5)nc(OC[C@@H]5CCCN5CCCn5cc(CNC(=O)CCCC[C@@H]6SC[C@@H]7NC(=O)N[C@@H]76)nn5)nc4c3F)c12 [Compound 112, N-((1-(3-((S)-2-(((7-(8-ethynyl-7-fluoro-3-hydroxynaphthalen-1-yl)-8-fluoro-4-(4-((Z)-2-fluoro-3-(pyridin-2-yl)acryloyl)piperazin-1-yl)pyrido[4,3-d]pyrimidin-2-yl)oxy)methyl)pyrrolidin-1-yl)propyl)-1H-1,2,3-triazol-4-yl)methyl)-5-((3aS,4S,6aR)-2-oxohexahydro-1H-thieno[3,4-d]imidazol-4-yl)pentanamide]",< 2
2,"C#Cc1cccc2cccc(-c3ncc4c(N(C)[C@@H]5CCN(C(=O)/C(F)=C/c6ccccn6)C5)nc(OC[C@@]56CCCN5C[C@H](F)C6)nc4c3F)c12 [Compound 115, (Z)-1-((R)-3-((7-(8-ethynylnaphthalen-1-yl)-8-fluoro-2-(((2R, 7aS)-2-fluorotetrahydro-1H-pyrrolizin-7a(5H)-yl)methoxy)pyrido[4,3-d]pyrimidin-4-yl)(methyl)amino)pyrrolidin-1-yl)-2-fluoro-3-(pyridin-2-yl)prop-2-en-1-one]",14
3,"C#Cc1cccc2cccc(-c3ncc4c(N(C)[C@@H]5CCN(C(=O)/C(F)=C/c6nccs6)C5)nc(OC[C@@]56CCCN5C[C@H](F)C6)nc4c3F)c12 [Compound 116, (Z)-1-((R)-3-((7-(8-ethynylnaphthalen-1-yl)-8-fluoro-2-(((2R, 7aS)-2-fluorotetrahydro-1H-pyrrolizin-7a(5H)-yl)methoxy)pyrido[4,3-d]pyrimidin-4-yl)(methyl)amino)pyrrolidin-1-yl)-2-fluoro-3-(thiazol-2-yl)prop-2-en-1-one]",27
4,"C#Cc1c(F)ccc2cccc(-c3ncc4c(N(C)[C@@H]5CCN(C(=O)/C(F)=C/c6nccs6)C5)nc(OC[C@@]56CCCN5C[C@H](F)C6)nc4c3F)c12 [Compound 118, (Z)-1-((R)-3-((7-(8-ethynyl-7-fluoronaphthalen-1-yl)-8-fluoro-2-(((2R, 7aS)-2-fluorotetrahydro-IH-pyrrolizin-7a(5H)-yl)methoxy)pyrido[4,3-d]pyrimidin-4-yl)(methyl)amino)pyrrolidin-1-yl)-2-fluoro-3-(thiazol-2-yl)prop-2-en-1-one]",30
5,"CN(c1nc(OC[C@@]23CCCN2C[C@H](F)C3)nc2c(F)c(-c3c(F)cc(F)c4sc(N)nc34)ncc12)[C@@H]1CCN(C(=O)/C(F)=C/c2ccccn2)C1 [Compound 119, (Z)-1-((3R)-3-((7-(2-amino-5,7-difluorobenzo[d]thiazol-4-yl)-8-fluoro-2-(((7aS)-2-fluorotetrahydro-1H-pyrrolizin-7a(5H)-yl)methoxy)pyrido[4,3-d]pyrimidin-4-yl)(methyl)amino)pyrrolidin-1-yl)-2-fluoro-3-(pyridin-2-yl)prop-2-en-1-one]",5
6,"C#Cc1cccc2cccc(-c3ncc4c(N5CCN(C(=O)/C(F)=C/c6ncccn6)CC5)nc(OC[C@@]56CCCN5C[C@H](F)C6)nc4c3F)c12 [Compound 123, (Z)-1-(4-(7-(8-ethynylnaphthalen-1-yl)-8-fluoro-2-(((2R, 7aS)-2-fluorotetrahydro-1H-pyrrolizin-7a(5H)-yl)methoxy)pyrido[4,3-d]pyrimidin-4-yl)piperazin-1-yl)-2-fluoro-3-(pyrimidin-2-yl)prop-2-en-1-one]",187
7,"C#Cc1cccc2cccc(-c3ncc4c(N5CCN(C(=O)/C(F)=C/c6ncco6)CC5)nc(OC[C@@]56CCCN5C[C@H](F)C6)nc4c3F)c12 [Compound 124, (Z)-1-(4-(7-(8-ethynylnaphthalen-1-yl)-8-fluoro-2-(((2R, 7aS)-2-fluorotetrahydro-1H-pyrrolizin-7a(5H)-yl)methoxy)pyrido[4,3-d]pyrimidin-4-yl)piperazin-1-yl)-2-fluoro-3-(oxazol-2-yl)prop-2-en-1-one]",540
8,"C#Cc1cccc2cccc(-c3ncc4c(N5CCN(C(=O)/C(Cl)=C/c6ccccn6)CC5)nc(OC[C@@]56CCCN5C[C@H](F)C6)nc4c3F)c12 [Compound 126, (Z)-2-chloro-1-(4-(7-(8-ethynylnaphthalen-1-yl)-8-fluoro-2-(((2R, 7aS)-2-fluorotetrahydro-1H-pyrrolizin-7a(5H)-yl)methoxy)pyrido[4,3-d]pyrimidin-4-yl)piperazin-1-yl)-3-(pyridin-2-yl)prop-2-en-1-one]",47000
9,"C#Cc1cccc2cccc(-c3ncc4c(N5CCN(C(=O)/C(F)=C/c6cccnn6)CC5)nc(OC[C@@]56CCCN5C[C@H](F)C6)nc4c3F)c12 [Compound 127, (Z)-1-(4-(7-(8-ethynylnaphthalen-1-yl)-8-fluoro-2-(((2R, 7aS)-2-fluorotetrahydro-1H-pyrrolizin-7a(5H)-yl)methoxy)pyrido[4,3-d]pyrimidin-4-yl)piperazin-1-yl)-2-fluoro-3-(pyridazin-3-yl)prop-2-en-1-one]",10
10,"C#Cc1cccc2cccc(-c3ncc4c(N(C)[C@H]5CN(C(=O)/C(F)=C/c6nccs6)C[C@H]5F)nc(OC[C@@]56CCCN5C[C@H](F)C6)nc4c3F)c12 [Compound 129, (Z)-1-((3S,4R)-3-((7-(8-ethynylnaphthalen-1-yl)-8-fluoro-2-(((2R, 7aS)-2-fluorotetrahydro-1H-pyrrolizin-7a(5H)-yl)methoxy)pyrido[4,3-d]pyrimidin-4-yl)(methyl)amino)-4-fluoropyrrolidin-1-yl)-2-fluoro-3-(thiazol-2-yl)prop-2-en-1-one]",200

# Continued, values first:
row,IC50 [nM],Structure (SMILES)
1,156,"CN(c1nc(OC[C@@]23CCCN2C[C@H](F)C3)nc2c(F)c(-c3cccc4cccc(C#N)c34)ncc12)[C@@H]1CCN(C(=O)/C(F)=C/c2ccccn2)C1 [Compound 113, 8-(8-fluoro-4-(((R)-1-((Z)-2-fluoro-3-(pyridin-2-yl)acryloyl)pyrrolidin-3-yl)(methyl)amino)-2-(((2R, 7aS)-2-fluorotetrahydro-1H-pyrrolizin-7a(5H)-yl)methoxy)pyrido[4,3-d]pyrimidin-7-yl)-1-naphthonitrile]"
2,719,"CN(c1nc(OC[C@@]23CCCN2C[C@H](F)C3)nc2c(F)c(-c3cccc4cccc(C#N)c34)ncc12)[C@@H]1CCN(C(=O)/C(F)=C/c2nccs2)C1 [Compound 114, 8-(8-fluoro-4-(((R)-1-((Z)-2-fluoro-3-(thiazol-2-yl)acryloyl)pyrrolidin-3-yl)(methyl)amino)-2-(((2R, 7aS)-2-fluorotetrahydro-1H-pyrrolizin-7a(5H)-yl)methoxy)pyrido[4,3-d]pyrimidin-7-yl)-1-naphthonitrile]"
3,9,"C#Cc1c(F)ccc2cccc(-c3ncc4c(N(C)[C@@H]5CCN(C(=O)/C(F)=C/c6ccccn6)C5)nc(OC[C@@]56CCCN5C[C@H](F)C6)nc4c3F)c12 [Compound 117, (Z)-1-((R)-3-((7-(8-ethynyl-7-fluoronaphthalen-1-yl)-8-fluoro-2-(((2R, 7aS)-2-fluorotetrahydro-IH-pyrrolizin-7a(5H)-yl)methoxy)pyrido[4,3-d]pyrimidin-4-yl)(methyl)amino)pyrrolidin-1-yl)-2-fluoro-3-(pyridin-2-yl)prop-2-en-1-one]"
4,8,"N#Cc1c(N)sc2c(F)ccc(-c3ncc4c(N5CCN(C(=O)/C(F)=C/c6ccccn6)CC5)nc(OC[C@@]56CCCN5C[C@H](F)C6)nc4c3F)c12 [Compound 121, 2-amino-7-fluoro-4-(8-fluoro-4-(4-((Z)-2-fluoro-3-(pyridin-2-yl)acryloyl)piperazin-1-yl)-2-(((7aS)-2-fluorotetrahydro-1H-pyrrolizin-7a(5H)-yl)methoxy)pyrido[4,3-d]pyrimidin-7-yl)benzo[b]thiophene-3-carbonitrile]"
5,6,"N#Cc1c(N)sc2c(F)ccc(-c3ncc4c(N5CCN(C(=O)/C(F)=C/c6nccs6)CC5)nc(OC[C@@]56CCCN5C[C@H](F)C6)nc4c3F)c12 [Compound 122, 2-amino-7-fluoro-4-(8-fluoro-4-(4-((Z)-2-fluoro-3-(thiazol-2-yl)acryloyl)piperazin-1-yl)-2-(((7aS)-2-fluorotetrahydro-1H-pyrrolizin-7a(5H)-yl)methoxy)pyrido[4,3-d]pyrimidin-7-yl)benzo[b]thiophene-3-carbonitrile]"
6,480,"C#Cc1cccc2cccc(-c3ncc4c(N5CCN(C(=O)/C(F)=C/c6cncc(C)n6)CC5)nc(OC[C@@]56CCCN5C[C@H](F)C6)nc4c3F)c12 [Compound 125, (Z)-1-(4-(7-(8-ethynylnaphthalen-1-yl)-8-fluoro-2-(((2R, 7aS)-2-fluorotetrahydro-1H-pyrrolizin-7a(5H)-yl)methoxy)pyrido[4,3-d]pyrimidin-4-yl)piperazin-1-yl)-2-fluoro-3-(6-methylpyrazin-2-yl)prop-2-en-1-one]"
7,30,"C#Cc1cccc2cccc(-c3ncc4c(N(C)[C@H]5CN(C(=O)/C(F)=C/c6ccccn6)C[C@H]5F)nc(OC[C@@]56CCCN5C[C@H](F)C6)nc4c3F)c12 [Compound 128, (Z)-1-((3S,4R)-3-((7-(8-ethynylnaphthalen-1-yl)-8-fluoro-2-(((2R, 7aS)-2-fluorotetrahydro-1H-pyrrolizin-7a(5H)-yl)methoxy)pyrido[4,3-d]pyrimidin-4-yl)(methyl)amino)-4-fluoropyrrolidin-1-yl)-2-fluoro-3-(pyridin-2-yl)prop-2-en-1-one]"
8,60,"C#Cc1cccc2cccc(-c3ncc4c(N(C)[C@H]5CN(C(=O)/C(F)=C/c6cnccn6)C[C@H]5F)nc(OC[C@@]56CCCN5C[C@H](F)C6)nc4c3F)c12 [Compound 130, (Z)-1-((3S,4R)-3-((7-(8-ethynylnaphthalen-1-yl)-8-fluoro-2-(((2R, 7aS)-2-fluorotetrahydro-1H-pyrrolizin-7a(5H)-yl)methoxy)pyrido[4,3-d]pyrimidin-4-yl)(methyl)amino)-4-fluoropyrrolidin-1-yl)-2-fluoro-3-(pyrazin-2-yl)prop-2-en-1-one]"
